PubChem BioAssay (NCI)
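Grown in 96-well plates, cells were treated for 48 hours with each compound at five concentrations. Insufficient inhibition: endpoint recorded as highest concentration tested. At the GI50, growth is halved. TGI is the concentration that stops growth completely.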

What was measured:
Test in all cases: NCI-60 cell line screen, 48 h; in the data active means GI50 below about 0.43 µM; inactive means the rest
[1] = system: U251 CNS
[2] = system: SK-MEL-28 melanoma
[3] = system: SK-MEL-2 melanoma
[4] = system: SF-268 CNS
[5] = system: EKVX NSCLC
[6] = system: NCI-H23 lung
[7] = system: RPMI-8226 leukemia
[8] = system: COLO 205 colon
[9] = system: HT29 colon
[10] = system: HCT-116 colon

COC(=O)[C@]12CC[C@@H](C)[C@H](C)[C@@H]1C1=CC[C@@H]3[C@@]4(C)C/C(=N\O)[C@H](O)[C@@]5(C)COC(=C45)C[C@@]3(C)[C@]1(C)CC2
9.79 µM: TGI [1]
7.11 µM: TGI [10]
6.82 µM: TGI [7]
22.3 µM: TGI [6]
9.31 µM: TGI [9]
30 µM: TGI [4]
21.8 µM: TGI [8]
33.7 µM: TGI [2]
28.9 µM: TGI [3]
inactive: GI50 [1] 3.02 µM | GI50 [2] 15 µM | GI50 [3] 13.4 µM | GI50 [4] 12.6 µM | GI50 [5] 10.3 µM | GI50 [6] 6.89 µM | GI50 [7] 2.67 µM | GI50 [8] 7.75 µM | GI50 [9] 2.88 µM | GI50 [10] 2.42 µM
24.3 µM: TGI [5]

COC(=O)c1c/c(=N\NC(=O)CC(=O)Nc2ccccc2OC)c2ccccc2o1
> 100 µM: TGI [1] | TGI [2] | TGI [3] | TGI [4] | TGI [5] | TGI [6] | TGI [7] | TGI [8] | TGI [9] | TGI [10]

C[C@@H]1OC(O)[C@@H](F)[C@H](O)[C@@H]1O (stereo not given in full)
> 100 µM: TGI [1] | TGI [2] | TGI [3] | TGI [4] | TGI [5] | TGI [6] | TGI [7] | TGI [8] | TGI [9] | TGI [10]
inactive: GI50 [1] > 100 µM | GI50 [2] > 100 µM | GI50 [3] > 100 µM | GI50 [4] > 100 µM | GI50 [5] > 100 µM | GI50 [6] > 100 µM | GI50 [7] > 100 µM | GI50 [8] > 100 µM | GI50 [9] > 100 µM | GI50 [10] > 100 µM

Oc1ccc(NCc2nc3ccccc3[nH]2)cc1
inactive: GI50 [1] 28.2 µM | GI50 [2] 38.4 µM | GI50 [3] 22.8 µM | GI50 [4] 35.3 µM | GI50 [5] 46.2 µM | GI50 [6] 54.5 µM | GI50 [7] 72.8 µM | GI50 [8] 69.1 µM | GI50 [9] > 100 µM | GI50 [10] 41.8 µM
> 100 µM: TGI [1] | TGI [2] | TGI [4] | TGI [5] | TGI [6] | TGI [7] | TGI [8] | TGI [9] | TGI [10]
98.8 µM: TGI [3]

O=C1/C(=C/c2ccccc2)CNC/C1=C\c1ccccc1
1.37 µM: TGI [1]
4.27 µM: TGI [6]
9.18 µM: TGI [3]
3.13 µM: TGI [9]
0.787 µM: TGI [7]
16.5 µM: TGI [5]
3.9 µM: TGI [2]
9.34 µM: TGI [4]
3.11 µM: TGI [8]
0.415 µM: TGI [10]

C[C@]12CC[C@H]3[C@@H](CC=C4C[C@@H](O)CC[C@@]43C)[C@@H]1CC[C@@H]2N(CCO)CCO
> 100 µM: TGI [1] | TGI [2] | TGI [3] | TGI [4] | TGI [6] | TGI [7] | TGI [8] | TGI [9] | TGI [10]
78.1 µM: TGI [5]

CC(C)(C)OC(=O)N1CCc2c(sc3ncnc(N/N=C/c4cccc5ccccc45)c23)C1
inactive: GI50 [1] 4.25 µM | GI50 [2] 7.78 µM | GI50 [3] 4.38 µM | GI50 [4] 4.59 µM | GI50 [5] 3.64 µM | GI50 [6] 5.25 µM | GI50 [7] 2.28 µM | GI50 [8] 2.79 µM | GI50 [9] 4.07 µM | GI50 [10] 3.22 µM
30.4 µM: TGI [10]
25.9 µM: TGI [3]
> 100 µM: TGI [1] | TGI [2] | TGI [4] | TGI [5] | TGI [6] | TGI [9]
8.49 µM: TGI [7]
40.8 µM: TGI [8]
